The values that follow come from patent publication US11446287B2, “Compounds and methods for EP300 or CBP modulation and indications therefor” (Opna Immuno-Oncology SA, priority 2019, dated 2022).

As a reminder, the pIC50 is the IC50 on a negative log10 scale, so that one unit is a factor of ten.

The structures appear in SMILES notation. pIC50: −log10 of the molar value.

The assay has as its target T1, Recombinant human EP300 containing the bromodomain (EP300-BD (1040-1161)) (Homo sapiens, UniProt Q09472).
T1 construct: Recombinant human EP300 bromodomain (EP300-BD (1040-1161)); made in house; host or cells: E. coli BL21-CodonPlus (DE3), modified pET vector
T1 sequence (Q09472 1040-1161): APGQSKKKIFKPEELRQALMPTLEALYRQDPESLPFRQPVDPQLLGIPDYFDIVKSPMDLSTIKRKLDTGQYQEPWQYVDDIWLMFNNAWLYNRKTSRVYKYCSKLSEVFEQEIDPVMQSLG
Nature of the assay: EP300 Alphascreen binding assay. As for the experimental part:
EP300 Alphascreen Binding Assay
Binding of compounds of Formula (I) with EP300 was assessed using Alphascreen™ binding assay. The inhibition of the interaction between the EP300 bromodomain and its acetylated target protein was measured quantitatively using recombinant EP300 protein, an acetylated Histone 3 peptide and AlphaScreen™ technology. In absence of inhibition of the EP300 protein bound to AlphaScreen™ nickel chelate acceptor beads can interact with the acetylated Histone 3 peptide which is immobilized by the AlphaScreen™ Streptavidin coated beads. This interaction brings donor and acceptor beads in proximity. The close proximity allows the singlet oxygen produced by laser excitation of the donor beads to reach the acceptor beads and generate a luminescence signal. EP300 inhibitors result in a decrease in the proximity signal through an inhibition of the EP300—acetylated peptide interaction.
Recombinant human EP300 containing the bromodomain (EP300-BD (1040-1161)) was prepared and purified as described in protein expression and purification session. The peptide is human Histone H345-64K56Ac-Biotin (Anaspec CA, USA).
Protocol for EP300 assay: All components were prepared in buffer composed of 50 mM HEPES pH 7.5, 50 mM NaCl, 0.01% BSA, 0.01% Triton X-100, 2 mM DTT. Test compounds and DMSO vehicle were diluted 1:50 in buffer and a 4 μL volume is transferred to an Alphaplate. 5.5 μL of EP300 protein and 5.5 μL of peptide were added to wells containing 4 μL of various concentrations of test compounds of Formula (I) or DMSO vehicle in an Alphaplate (PerkinElmer GA, USA) and incubated for 1 hour at room temperature. 5 μL donor and acceptor bead mixture was then added with final concentrations of 7.5 μg/ml. 60 minutes after bead addition, Alpha signal is read on the Envision spectrometer (λEx 680 nm, λEm 520-620 nm). Final concentrations of bromodomain proteins and peptide are as shown below.
All data were normalized to the mean of 16 high and 16 low control wells on each plate. A four parameter curve fit of the following formula was then applied: Y=A+((B−A)/(1+((C/x)^D))) Where ‘A’ is the minimum, ‘B’ is the maximum, ‘C’ is the IC50 and ‘D’ is the Hill slope. Protein Expression and Purification
Recombinant human EP300 bromodomain (EP300-BD (1040-1161)) was expressed in E. coli cells (in a modified pET vector) with an N-terminal six-His tag and purified using a combination of both IMAC (Ni-affinity) and size exclusion chromatography steps.
Recombinant EP300 protein was expressed using the E. coli strain BL21-CodonPlus (DE3) (Agilent Technologies CA, USA). Cells were grown in Terrific Broth (TB) media to an OD600 of 0.7 at 37° C. at which temperature was reduced to 18° C., protein was induced with 1.0 mM isopropyl-β-D-thiogalactopyranoside (“IPTG”) for 20 hours and harvested by centrifugation at 8500×g for 20 minutes. Cells were re-suspended in 0.1M K2PO4 pH 8.0, 250 mM NaCl, 10% Glycerol, 0.75% NP-40, 25 mM Imidazole, with 0.2 mg/ml Lysozyme, 0.2 mM phenylmethanesulfonyl fluoride (“PMSF”), 25 μg/ml DNase I, incubated on ice for 30 minutes and lysed with a cell disruptor (MicroFluidics MA, USA). The lysate was clarified by centrifugation at 20,000×g for 1 hour. The protein was captured with Ni-NTA resin (Life Technologies, USA). Contaminating proteins were washed off with 50 mM HEPES pH 7.5, 500 mM NaCl, and 5% Glycerol. Following 3× wash steps, protein was eluted step wise using 10, 25, 50, 100, 150, and 250 mM Imidazole in 50 mM HEPES pH 7.5, 500 mM NaCl, and 5% glycerol. The protein was further purified using a size exclusion column (26/600 Superdex 200, GE Biosciences NJ, USA) in 10 mM HEPES pH 7.5, […].
Background: Alpha assays give light when donor and acceptor beads are brought close together.
In the case of `Cc1ccc(S(=O)(=O)n2cc(-c3ccc(C(=O)O)cc3)c3cc(-c4c(C)noc4C)cnc32)cc1` [P-0006, 4-(5-(3,5-dimethylisoxazol-4-yl)-1-tosyl-1H-pyrrolo[2,3-b]pyridin-3-yl)benzoic acid], the negative-log IC50 (pIC50) is 5.10 to 6.00. In the case of `Cc1noc(C)c1-c1cnc2c(c1)c(-c1ccc(C(=O)O)cc1)cn2C(c1ccccn1)C1CC1` (centres unmarked) [P-0007, 4-(1-(cyclopropyl(pyridin-2-yl)methyl)-5-(3,5-dimethylisoxazol-4-yl)-1H-pyrrolo[2,3-b]pyridin-3-yl)benzoic acid], the pIC50 was 6.00 to 10.00. With `Cc1noc(C)c1-c1cnc2c(c1)c(-c1ccc(C(=O)O)cc1)cn2C(c1ccccn1)C1CCC1` (centres unmarked) [P-0008, 4-(1-(cyclobutyl(pyridin-2-yl)methyl)-5-(3,5-dimethylisoxazol-4-yl)-1H-pyrrolo[2,3-b]pyridin-3-yl)benzoic acid], the negative-log IC50 (pIC50) was 6.00 to 10.00. The value for `Cc1noc(C)c1-c1cnc2c(CC3CCC3)cn(-c3ccc(C(=O)O)cn3)c2c1` [P-0009, 6-(3-(cyclobutylmethyl)-6-(3,5-dimethylisoxazol-4-yl)-1H-pyrrolo[3,2-b]pyridin-1-yl)nicotinic acid] was 6.00 to 10.00. Take `Cc1noc(C)c1-c1cnc2c(CC3CC3)cn(-c3ccc(C(=O)O)cn3)c2c1` [P-0010, 6-(3-(cyclopropylmethyl)-6-(3,5-dimethylisoxazol-4-yl)-1H-pyrrolo[3,2-b]pyridin-1-yl)nicotinic acid]: the pIC50 is 6.00 to 10.00. The value for `Cc1noc(C)c1-c1cnc2c(Cc3ccccn3)cn(-c3ccc(C(=O)O)cn3)c2c1` [P-0011, 6-(6-(3,5-dimethylisoxazol-4-yl)-3-(pyridin-2-ylmethyl)-1H-pyrrolo[3,2-b]pyridin-1-yl)nicotinic acid] was 6.00 to 10.00.

For `Cc1noc(C)c1-c1cnc2c(c1)c(-c1ccc(C(=O)O)cc1)cn2C(c1ccccn1)c1ccccn1` [P-0012, 4-(1-(di(pyridin-2-yl)methyl)-5-(3,5-dimethylisoxazol-4-yl)-1H-pyrrolo[2,3-b]pyridin-3-yl)benzoic acid], the pIC50 was 6.00 to 10.00.

With `Cc1noc(C)c1-c1cnc2c(c1)c(-c1ccc(C(=O)O)cc1F)cn2[C@@H](C)c1ccccn1` [P-0097, (S)-4-(5-(3,5-dimethylisoxazol-4-yl)-1-(1-(pyridin-2-yl)ethyl)-1H-pyrrolo[2,3-b]pyridin-3-yl)-3-fluorobenzoic acid], the pIC50 is 6.00 to 10.00. Under `COc1ccc(C(=O)O)cc1-n1cc(CC2CCC2)c2ncc(-c3c(C)noc3C)cc21` [P-0098, 3-(3-(cyclobutylmethyl)-6-(3,5-dimethylisoxazol-4-yl)-1H-pyrrolo[3,2-b]pyridin-1-yl)-4-methoxybenzoic acid] stands 6.00 to 10.00; under `Cc1noc(C)c1-c1cnc2c(C(=O)c3cccc(OC(F)F)c3)cn(-c3ccnc(C(=O)O)c3)c2c1` [P-0099, 4-(3-(3-(difluoromethoxy)benzoyl)-6-(3,5-dimethylisoxazol-4-yl)-1H-pyrrolo[3,2-b]pyridin-1-yl)picolinic acid], 6.00 to 10.00; under `Cc1noc(C)c1-c1cnc2c(Cc3cccc(OC(F)F)c3)cn(-c3ccnc(C(=O)O)c3)c2c1` [P-0100, 4-(3-(3-(difluoromethoxy)benzyl)-6-(3,5-dimethylisoxazol-4-yl)-1H-pyrrolo[3,2-b]pyridin-1-yl)picolinic acid], 6.00 to 10.00. The value for `Cc1noc(C)c1-c1cnc2c(c1)c(-c1cccc(C(=O)O)c1)cn2CC1CC(F)(F)C1` [P-0101, 3-(1-((3,3-difluorocyclobutyl)methyl)-5-(3,5-dimethylisoxazol-4-yl)-1H-pyrrolo[2,3-b]pyridin-3-yl)benzoic acid] was 6.00 to 10.00; that for `Cc1noc(C)c1-c1cnc2c(c1)c(-c1cccc(C(=O)O)c1)cn2CC1(C)COC1` [P-0102, 3-(5-(3,5-dimethylisoxazol-4-yl)-1-((3-methyloxetan-3-yl)methyl)-1H-pyrrolo[2,3-b]pyridin-3-yl)benzoic acid] was 5.10 to 6.00; that for `COc1cc(C(=O)O)cc(OC)c1-c1cn([C@@H](C)c2ccccn2)c2ncc(-c3c(C)noc3C)cc12` [P-0103, (S)-4-(5-(3,5-dimethylisoxazol-4-yl)-1-(1-(pyridin-2-yl)ethyl)-1H-pyrrolo[2,3-b]pyridin-3-yl)-3,5-dimethoxybenzoic acid] was 6.00 to 10.00. With `Cc1noc(C)c1-c1cnc2c(CC3CCC3)cn(-c3ccc(C#N)c(C(=O)O)c3)c2c1` [P-0104, 2-cyano-5-(3-(cyclobutylmethyl)-6-(3,5-dimethylisoxazol-4-yl)-1H-pyrrolo[3,2-b]pyridin-1-yl)benzoic acid], the negative-log IC50 (pIC50) is 6.00 to 10.00. As for `Cc1noc(C)c1-c1cnc2c(CC3CCC3)cn(-c3ccc(C(=O)O)c(C#N)c3)c2c1` [P-0105, 2-cyano-4-(3-(cyclobutylmethyl)-6-(3,5-dimethylisoxazol-4-yl)-1H-pyrrolo[3,2-b]pyridin-1-yl)benzoic acid], the pIC50 is 6.00 to 10.00.

As for `Cc1noc(C)c1-c1cnc2c(c1)c(-c1cncc(C(=O)O)n1)cn2[C@@H](C)c1ccccn1` [P-0106, (S)-6-(5-(3,5-dimethylisoxazol-4-yl)-1-(1-(pyridin-2-yl)ethyl)-1H-pyrrolo[2,3-b]pyridin-3-yl)pyrazine-2-carboxylic acid], the negative-log IC50 (pIC50) was 5.10 to 6.00. Under `Cc1noc(C)c1-c1cnc2c(c1)c(-c1nccc(C(=O)O)n1)cn2[C@@H](C)c1ccccn1` [P-0107, (S)-2-(5-(3,5-dimethylisoxazol-4-yl)-1-(1-(pyridin-2-yl)ethyl)-1H-pyrrolo[2,3-b]pyridin-3-yl)pyrimidine-4-carboxylic acid] stands 5.10 to 6.00; under `CCOc1cc(C(=O)O)cc(F)c1-n1cc(CC2CCC2)c2ncc(-c3c(C)noc3C)cc21` [P-0108, 4-(3-(cyclobutylmethyl)-6-(3,5-dimethylisoxazol-4-yl)-1H-pyrrolo[3,2-b]pyridin-1-yl)-3-ethoxy-5-fluorobenzoic acid], 6.00 to 10.00. Under `CCOc1cc(C(=O)O)cc(OCC)c1-n1cc(CC2CCC2)c2ncc(-c3c(C)noc3C)cc21` [P-0109, 4-(3-(cyclobutylmethyl)-6-(3,5-dimethylisoxazol-4-yl)-1H-pyrrolo[3,2-b]pyridin-1-yl)-3,5-diethoxybenzoic acid] stands 6.00 to 10.00; under `Cc1noc(C)c1-c1cnc2c(CC3CCC3)cn(-c3ccc(C(=O)O)c4ccoc34)c2c1` [P-0110, 7-(3-(cyclobutylmethyl)-6-(3,5-dimethylisoxazol-4-yl)-1H-pyrrolo[3,2-b]pyridin-1-yl)benzofuran-4-carboxylic acid], 6.00 to 10.00. The value for `Cc1noc(C)c1-c1cnc2c(CC3CCC3)cn(-c3c(OC(C)C)cc(C(=O)O)cc3OC(C)C)c2c1` [P-0111, 4-(3-(cyclobutylmethyl)-6-(3,5-dimethylisoxazol-4-yl)-1H-pyrrolo[3,2-b]pyridin-1-yl)-3,5-diisopropoxybenzoic acid] was 6.00 to 10.00. Regarding `Cc1noc(C)c1-c1cnc2c(c1)c(-c1ccc(C(=O)O)cc1OC(C)C)cn2[C@@H](C)c1ccccn1` [P-0112, (S)-4-(5-(3,5-dimethylisoxazol-4-yl)-1-(1-(pyridin-2-yl)ethyl)-1H-pyrrolo[2,3-b]pyridin-3-yl)-3-isopropoxybenzoic acid], the negative-log IC50 (pIC50) was 6.00 to 10.00.
